# Literature values as cited in US20070298008A1, “Method of bowel cleansing” (Braintree Laboratories, Inc., priority 2002, published 2007).
# Like-named read-outs stand apart in the source and are kept apart here.
# System: intestines and rectum
smiles,measurement,setting,value
CC(=O)Oc1ccc(C(c2ccc(OC(C)=O)cc2)c2ccccn2)cc1 [Bisacodyl],Time to produce a bowel movement,enema,about 20 minutes
same,Time to produce a bowel movement,suppository,about an hour
